# Experiments:
# [1] = tested on: 6-OHDA mouse model of Parkinson's disease; assay: Studies C and D: LC-MS/MS quantification of striatal dopamine and metabolites in the 6-OHDA mouse model; assay type: in vivo, C57BL6 mice; conditions: 28 days after the 6-OHDA lesion
# Description: To determine the oral efficacy of the compound of formula (I) in the 6-OHDA mouse model of Parkinson's disease.
# 8-week-old C57BL6 male mice (obtained from ARC, Perth, Australia) were housed under a 12-h light cycle in a SPF climate-controlled facility with food and water provided ad libitum for two weeks prior to study initiation. For treatment with the compound of formula (I), mice were dosed via oral gavage. Ten (10) mice in each group were dosed at 3 or 1 mg/kg, starting the day before (24 hr prior) stereotaxic surgery, and then QD until sacrifice.
# 6-OHDA (Sigma) was prepared immediately prior to surgeries. A sterile saline (0.9%) solution containing ascorbic acid (0.2%) was used as the vehicle to dissolve 6-OHDA. […]
# Mice were sacrificed 1 week after the amphetamine test (day 28) and striatal tissue was micro-dissected, weighed and snap-frozen at −80° C. […] Striatal dopamine (DA) and its metabolites (DOPAC and HVA) were quantified in their stable derivative 3o form in the presence of internal standard 3,4-dihydroxybenzylamine (DHBA) using highly sensitive liquid chromatography-tandem mass spectrometry (LC-MS/MS) as described previously (Park et al., Biol. Pharm. Bull., 2013, vol. 36, pp. 252-8). […] For quantitation, one transition per analyte was monitored and two transitions per analyte were monitored for qualitative purposes. […]
# [2] = tested on: PFF-Synuclein model of Parkinson's disease; assay: Study H: LC-MS/MS quantification of striatal dopamine and metabolites in the PFF-Synuclein mouse model; assay type: in vivo, C57BL6 mice; conditions: ipsilateral striatum, 12 months
# From the text: To determine the oral efficacy of the compound of formula (I) in a chronic progressive model of Parkinson's disease (PD), the preformed fibrils (PFF) mouse model, using a prophylactic and therapeutic dosing schedule.
# 8-week-old C57BL6 male mice (obtained from ARC, Perth, Australia) were housed under a 12-h light cycle in a SPF climate-controlled facility with food and water provided ad libitum for two weeks prior to study initiation. The compound of formula (I) (or water alone for control animals) was administrated to mice in drinking water at 0.3 mg/ml. Animals were separated into the groups described in Table 9, with ten animals initiated in each cohort. For prophylactic dosing, treatment commenced one day prior to PFF-Synuclein injection. For therapeutic dosing, treatment commenced 4 months after disease induction with PFF-Synuclein.
# Recombinant human a-synuclein was obtained from rPeptide Inc., and in vitro fibril generation was performed with a final concentration of 2 mg/ml in phosphate-buffered saline (PBS) by incubation at 37° C. with agitation in an orbital mixer (400 rpm) for 7 days with daily cycles of sonication used to break down fibrillar aggregates as outlined in previously published reports (see Luk et al., Science, 2012, vol. 338(6109), pp. 949-53; and Zhang et al., Methods Mol. Biol., 2019, vol. 1948, pp. 45-57, which are incorporated in their entirety herein by reference). The generation of fibrillar α-synuclein species was confirmed by transmission electron microscopy and Thioflavin T fluorescence prior to use.
# . The lesion was performed using a 5 μl Hamilton syringe to deliver either vehicle or human PFF-Synuclein (8 μg) at the following coordinates relative to bregma: AP: +0.5 mm; ML: −2.0 mm; DV: −3.0 mm into the right dorsal striatum according to the stereotaxic atlas (“The mouse brain in stereotaxic coordinates” by Paxinos and Franklin, 1997). After drilling a 1 mm burr-hole in the skull, a 2 μl volume of solution was infused at the target site at the rate of 0.2 μl per minute. The needle was held in place for at least 5 minutes after injection to minimize retrograde flow along the needle tract. […]
# At 12 months mice were sacrificed and striatal tissue was micro-dissected, weighed and snap-frozen at −80° C. […] Striatal dopamine (DA) and its metabolites (DOPAC and HVA) were quantified in their stable derivative form in the presence of internal standard 3,4-dihydroxybenzylamine (DHBA) using highly sensitive liquid chromatography-tandem mass spectrometry (LC-MS/MS) as described previously (Park et al., Biol. Pharm. Bull., 2013, vol. 36(2), pp. 252-8). […] For quantitation, one transition per analyte was monitored and two transitions per analyte were monitored for qualitative purposes.
# [3] = prophylactic and therapeutic treated mice
smiles,measurement,setting,value
CC(C)n1ccc(S(=O)(=O)NC(=O)Nc2c3c(cc4c2CCC4)CCC3)n1 [compound of formula (I)],striatal dopamine (with metabolites DOPAC and HVA),"[1]; Study C, 3 mg/kg oral QD",significantly protected against the loss of dopamine
same,striatal dopamine,"[1]; Study D, 3 mg/kg oral daily",significantly protected against the loss of dopamine with improved efficacy compared to MCC950
same,striatal DOPAC compared to the untreated PFF mice,[2]; [3],significantly higher
same,striatal HVA compared to the untreated PFF mice,[2]; [3],significantly higher
same,striatal dopamine concentrations compared with untreated PFF-syn mice,"[2]; prophylactic, P<0.02",significantly higher striatal dopamine concentrations
same,striatal dopamine concentrations compared with untreated PFF-syn mice,"[2]; therapeutic, P<0.05",significantly higher striatal dopamine concentrations

# — patent publication US20220401414A1, “TREATMENT AND PREVENTION OF A NEURODEGENERATIVE DISORDER” (Inflazome Limited, priority 2019, published 2022)
